Structures can show the parent of a compound that is named as a salt.
Experiments:
activated ROCK II = biological target: T1, activated ROCK II (Rattus norvegicus, UniProt Q62868); assay: Test for Evaluation of Inhibiting Activity to Rho Kinase; type: biochemical; details: S6 Kinase Substrate Peptide, [γ-32P]ATP, 30° C. for 15 minutes, Ki=IC50/(1+S/Km)
T1 construct: purchased Upstate Biotechnology 14-338
T1 sequence (Q62868 11-550 limits assumed): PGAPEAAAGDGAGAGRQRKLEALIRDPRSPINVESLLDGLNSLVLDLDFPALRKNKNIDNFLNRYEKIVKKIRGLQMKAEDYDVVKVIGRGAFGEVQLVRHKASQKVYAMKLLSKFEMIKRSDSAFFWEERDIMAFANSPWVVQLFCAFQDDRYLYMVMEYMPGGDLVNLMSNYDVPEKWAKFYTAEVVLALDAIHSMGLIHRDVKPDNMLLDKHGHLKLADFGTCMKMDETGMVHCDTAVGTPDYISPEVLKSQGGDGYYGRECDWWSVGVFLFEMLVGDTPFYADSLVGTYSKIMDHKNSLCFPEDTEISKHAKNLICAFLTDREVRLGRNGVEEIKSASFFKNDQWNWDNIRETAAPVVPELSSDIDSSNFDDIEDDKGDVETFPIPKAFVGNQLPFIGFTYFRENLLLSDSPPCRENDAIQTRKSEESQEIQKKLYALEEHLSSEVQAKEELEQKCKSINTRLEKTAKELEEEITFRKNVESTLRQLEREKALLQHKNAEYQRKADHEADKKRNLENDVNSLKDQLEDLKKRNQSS

Which Ki (activated ROCK II) does the source give for `CC(C)(N)c1ccc(-c2ccc3[nH]ncc3c2OCC2CC2)nc1.Cl.Cl.Cl` [Compound 5-73, 5-[5-(1-Amino-1-methylethyl)pyridin-2-yl]-4-cyclo-propylmethyloxy-1H-indazole trihydrochloride] here?
The Ki was 146 nM.

And the melting point?
The melting point was 270 to 272 °C (dec.).

Which melting point does the source give for `CC(C)(N)c1ccc(-c2ccc3[nH]ncc3c2[N+](=O)[O-])cc1` (as salt: hydrochloride) [Compound 5-4, 5-[4-(1-Amino-1-methylethyl)phenyl]-4-nitro-1H-indazole monohydrochloride] here?
The melting point was 255 to 261 °C (dec.).

With `CC(=O)Nc1c(-c2ccc(C(C)(C)N)cc2)ccc2[nH]ncc12` (as salt: hydrochloride) [Compound 5-18, 4-(N-Acetylamino)-5-[4-(1-amino-1-methylethyl)-phenyl]-1H-indazole dihydrochloride] as the compound, how does the melting point read?
Its melting point is 218 to 221 °C.

Reference: patent US8232308B2, “Methods for treating a disease in which Rho kinase is involved” (UBE Industries, Ltd., priority 2003, dated 2012)
